Measurements taken from US20240409585A1, “MACROCYCLIC IMMUNOMODULATORS” (priority 2021, published 2024).
Read-outs that look alike come from different tables or passages of the source. Bridge positions count the residues as written; N and C are the ends. Square brackets hold non-standard residues; d marks the D form. Peptide text beside a SMILES is read from it. * marks the point of attachment. ξ: configuration not given here. Bip = N[C@@H](Cc1ccc(-c2ccccc2)cc1)C(=O)O; Phe(3-CN) = N#Cc1cccc(C[C@H](N)C(=O)O)c1; Phe(3-Cl) = N[C@@H](Cc1cccc(Cl)c1)C(=O)O; Phe(3-Me) = Cc1cccc(C[C@H](N)C(=O)O)c1; Bta = N[C@@H](Cc1csc2ccccc12)C(=O)O; Val(3-OH) = CC(C)(O)[C@H](N)C(=O)O; 4Pal = N[C@@H](Cc1ccncc1)C(=O)O; Cha = N[C@@H](CC1CCCCC1)C(=O)O; Ile(3ξ) = CCC(C)[C@H](N)C(=O)O; Thr(3ξ) = CC(O)[C@H](N)C(=O)O; ξCha = NC(CC1CCCCC1)C(=O)O; Pip = O=C(O)[C@@H]1CCCCN1; Carboxymethyl = O=C(O)C*; NMeA = CN[C@@H](C)C(=O)O; Nle = CCCC[C@H](N)C(=O)O; Orn = NCCC[C@H](N)C(=O)O; Dab = NCC[C@H](N)C(=O)O; Dap = NC[C@H](N)C(=O)O

Target: T1, PE-labeled human PD-L1-Ig binding to Jurkat cell line over-expressing human PD-1 (Jurkat-PD-1) (Homo sapiens, UniProt Q15116)
T1 construct: expressed in transfected cells; host or cells: Jurkat
T1 sequence (Q15116 25-288): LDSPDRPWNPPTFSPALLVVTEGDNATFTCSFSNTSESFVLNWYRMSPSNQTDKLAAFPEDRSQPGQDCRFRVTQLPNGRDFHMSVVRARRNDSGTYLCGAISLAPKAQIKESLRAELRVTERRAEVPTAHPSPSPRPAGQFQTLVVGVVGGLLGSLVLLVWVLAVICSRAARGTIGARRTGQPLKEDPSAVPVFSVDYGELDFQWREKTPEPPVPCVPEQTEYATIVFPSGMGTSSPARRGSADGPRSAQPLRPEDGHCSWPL
Experiment: Jurkat-PD-1 Cell Binding High-Content Screening Assay (CBA): Method 1

[1] = Jurkat-hPD-1 cells, PE-labeled PD-L1-Ig 20 nM final, read-out: Jurkat HPDL1 PD1 IC50 (uM) (Method 1)

| SMILES | IC50 [1] [µM] | IC50 (Jurkat-PD-1 cells, PE-labeled PD-L1-Ig, μM, read-out: CBA Method 1 μM) [µM] |
| --- | --- | --- |
| CC(C)C[C@@H]1NC(=O)[C@H](CCCNC(=N)N)NC(=O)[C@H](Cc2csc3ccccc23)NC(=O)[C@H](C)N(C)C(=O)[C@H](CCCNC(=N)N)NC(=O)[C@H](Cc2ccc(-c3ccccc3)cc2)NC(=O)[C@H](C(C)C)NC(=O)[C@H](Cc2c[nH]c3ccccc23)NC(=O)[C@H](CC(=O)O)NC(=O)[C@H](Cc2ccc(O)cc2)NC(=O)[C@H](CC(N)=O)NC(=O)CSC[C@@H](C(=O)NCC(N)=O)NC(=O)[C@H](CO)NC(=O)[C@H](C(C)C)NC1=O [Compound 1026] ({CH2CO}-NYDWV[Bip]R[NMeA][Bta]RLVSCG-NH2; thioether N-14) | 0.13 |  |
| Cc1cccc(C[C@@H]2NC(=O)[C@H](CC(=O)O)NC(=O)[C@H](Cc3ccc(OCC(=O)O)cc3)NC(=O)[C@H](CC(N)=O)NC(=O)CSC[C@@H](C(N)=O)NC(=O)[C@H](CCC(N)=O)NC(=O)[C@H](C(C)C)NC(=O)[C@H](CC3CCCCC3)NC(=O)[C@H](CCN)NC(=O)[C@@H](CC(C)C)NC(=O)[C@H](C)N(C)C(=O)[C@H](Cc3ccc(OCC(=O)O)cc3)NC(=O)[C@H](Cc3ccc(-c4ccccc4)cc3)NC(=O)[C@H](Cc3ccc(OCC(=O)O)cc3)NC2=O)c1 [Compound 1665] ({CH2CO}-NY(Carboxymethyl)D[Phe(3-Me)]Y(Carboxymethyl)[Bip]Y(Carboxymethyl)[NMeA][dL][Dab][Cha]VQC-NH2; thioether N-14) | 0.09 |  |
| CCC(C)[C@@H]1NC(=O)[C@H](Cc2ccc(-c3ccccc3)cc2)NC(=O)[C@H](CC(C)C)NC(=O)[C@H](Cc2c[nH]c3ccccc23)NC(=O)[C@H](CC(=O)O)NC(=O)[C@H](Cc2ccc(OCC(=O)O)cc2)NC(=O)[C@H](C(C)O)NC(=O)CSC[C@@H](C(=O)N[C@@H](CC(N)=O)C(=O)O)NC(=O)[C@H](CC(C)C)NC(=O)[C@H](C(C)C)NC(=O)[C@H](CC(C)C)NC(=O)[C@H](CCN)NC(=O)[C@@H](CC(C)C)NC(=O)[C@H](C)N(C)C1=O (stereo partly drawn) [Compound 2224] ({CH2CO}-[Thr(3ξ)]Y(Carboxymethyl)DWL[Bip][Ile(3ξ)][NMeA][dL][Dab]LVLCN-OH; thioether N-14) | 0.24 |  |
| CCC(C)[C@@H]1NC(=O)[C@H](Cc2ccc(-c3ccccc3)cc2)NC(=O)[C@H](C(C)C)NC(=O)[C@H](Cc2cccc(C)c2)NC(=O)[C@H](CC(=O)O)NC(=O)[C@H](Cc2ccc(OCC(=O)O)cc2)NC(=O)[C@H](C(C)O)NC(=O)CSC[C@@H](C(=O)N[C@@H](CO)C(=O)NCC(=O)N[C@H](CO)C(N)=O)NC(=O)[C@H](C(C)O)NC(=O)[C@H](C(C)C)NC(=O)C(CC2CCCCC2)NC(=O)[C@H](CCN)NC(=O)[C@@H](CC(C)C)NC(=O)[C@H](C)N(C)C1=O (stereo partly drawn) [Example 5005] ({CH2CO}-[Thr(3ξ)]Y(Carboxymethyl)D[Phe(3-Me)]V[Bip][Ile(3ξ)][NMeA][dL][Dab][ξCha]V[Thr(3ξ)]CSG[dS]-NH2; thioether N-14) |  | 0.02 |
| CC(C)C[C@@H]1NC(=O)[C@H](CCN)NC(=O)[C@@H](CC(C)C)NC(=O)[C@H](C)N(C)C(=O)[C@H](C(C)C)NC(=O)[C@H](Cc2ccc(-c3ccccc3)cc2)NC(=O)[C@H](C(C)C)NC(=O)[C@H](Cc2c[nH]c3ccccc23)NC(=O)[C@H](CC(=O)O)NC(=O)[C@H](Cc2cccc(Cl)c2)NC(=O)[C@H](CN)NC(=O)CSC[C@@H](C(=O)N[C@@H](C)C(N)=O)NC(=O)[C@H]([C@@H](C)O)NC(=O)[C@H](C(C)C)NC1=O [Compound 1441] ({CH2CO}-[Dap][Phe(3-Cl)]DWV[Bip]V[NMeA][dL][Dab]LVTCA-NH2; thioether N-14) | 0.09 |  |
| CC(C)C[C@@H]1NC(=O)[C@H](Cc2c[nH]c3ccccc23)NC(=O)[C@H](CC(=O)O)NC(=O)[C@H](Cc2ccc(O)cc2)NC(=O)[C@H](Cc2ccccc2)NC(=O)CSC[C@@H](C(=O)N[C@@H](C)C(N)=O)NC(=O)[C@H]([C@@H](C)O)NC(=O)[C@H](CN)NC(=O)[C@H](CC(C)C)NC(=O)[C@H](CC(N)=O)NC(=O)[C@@H](C)NC(=O)[C@H](C)N(C)C(=O)[C@H](C(C)C)NC(=O)[C@H](Cc2ccc(-c3ccccc3)cc2)NC1=O [Compound 1535] ({CH2CO}-FYDWL[Bip]V[NMeA][dA]NL[Dap]TCA-NH2; thioether N-14) | 0.36 |  |
| CCCC[C@@H]1NC(=O)[C@H](Cc2c[nH]c3ccccc23)NC(=O)[C@H](CC(=O)O)NC(=O)[C@H](Cc2ccc(OCC(=O)O)cc2)NC(=O)[C@H](C(C)O)NC(=O)CSC[C@@H](C(=O)N[C@@H](CC(N)=O)C(=O)O)NC(=O)[C@H](CO)NC(=O)[C@H](C(C)C)NC(=O)[C@H](CC(C)C)NC(=O)[C@H](CCN)NC(=O)[C@@H](CC(C)C)NC(=O)[C@H](C)N(C)C(=O)[C@H](C(C)CC)NC(=O)[C@H](Cc2ccc(-c3ccccc3)cc2)NC1=O (stereo partly drawn) [Compound 2221] ({CH2CO}-[Thr(3ξ)]Y(Carboxymethyl)DW[Nle][Bip][Ile(3ξ)][NMeA][dL][Dab]LVSCN-OH; thioether N-14) | 0.06 |  |

Next, values leading:

| IC50 [1] [µM] | IC50 (Jurkat-PD-1 cells, PE-labeled PD-L1-Ig, μM, read-out: CBA Method 1 μM) [µM] | SMILES |
| --- | --- | --- |
| 0.02 |  | CCC(C)[C@@H]1NC(=O)[C@H](Cc2ccc(-c3ccccc3)cc2)NC(=O)[C@H](C(C)C)NC(=O)[C@H](Cc2c[nH]c3ccccc23)NC(=O)[C@H](CC(=O)O)NC(=O)[C@H](Cc2ccc(O)cc2)NC(=O)[C@H](Cc2ccncc2)NC(=O)CSC[C@@H](C(=O)N[C@@H](CN)C(=O)O)NC(=O)[C@H](C(C)O)NC(=O)[C@H](C(C)C)NC(=O)[C@H](CC2CCCCC2)NC(=O)[C@H](CC(N)=O)NC(=O)[C@@H](CC(C)C)NC(=O)[C@H](C)N(C)C1=O (stereo partly drawn) [Compound 2210] ({CH2CO}-[4Pal]YDWV[Bip][Ile(3ξ)][NMeA][dL]N[Cha]V[Thr(3ξ)]C[Dap]-OH; thioether N-14) |
| 0.03 |  | CC(C)C[C@@H]1NC(=O)[C@H](CCN)NC(=O)[C@@H](CC(C)C)NC(=O)[C@H](C)N(C)C(=O)[C@H](CCC(=O)O)NC(=O)[C@H](Cc2ccc(-c3ccccc3)cc2)NC(=O)[C@H](C(C)C)NC(=O)[C@H](Cc2c[nH]c3ccccc23)NC(=O)[C@H](CC(=O)O)NC(=O)[C@H](Cc2ccc(O)cc2)NC(=O)[C@H](CC(N)=O)NC(=O)CSC[C@@H](C(=O)N[C@@H](C)C(N)=O)NC(=O)[C@H](CCCN)NC(=O)[C@H](C(C)C)NC1=O [Compound 1238] ({CH2CO}-NYDWV[Bip]E[NMeA][dL][Dab]LV[Orn]CA-NH2; thioether N-14) |
| 0.01 |  | CC(C)C[C@@H]1NC(=O)[C@H](Cc2c[nH]c3ccccc23)NC(=O)[C@H](CC(=O)O)NC(=O)[C@H](Cc2ccc(O)cc2)NC(=O)[C@H](Cc2ccncc2)NC(=O)CSC[C@@H](C(=O)NCC(N)=O)NC(=O)[C@H](CO)NC(=O)[C@H](C(C)C)NC(=O)[C@H](CC(C)C)NC(=O)[C@H](CC(N)=O)NC(=O)[C@@H](C)NC(=O)[C@H](C)N(C)C(=O)[C@H](C(C)C)NC(=O)[C@H](Cc2ccc(-c3ccccc3)cc2)NC1=O [Compound 1722] ({CH2CO}-[4Pal]YDWL[Bip]V[NMeA][dA]NLVSCG-NH2; thioether N-14) |
| 0.02 |  | CC(C)C[C@@H]1NC(=O)[C@H](Cc2c[nH]c3ccccc23)NC(=O)[C@H](CC(=O)O)NC(=O)[C@H](Cc2ccc(O)cc2)NC(=O)[C@H](Cc2ccccc2)NC(=O)CSC[C@@H](C(=O)NCC(N)=O)NC(=O)[C@H](CO)NC(=O)[C@H](C(C)C)NC(=O)[C@H](CC(C)C)NC(=O)[C@H](CCN)NC(=O)[C@@H](C)NC(=O)[C@H](C)N(C)C(=O)[C@H](C(C)C)NC(=O)[C@H](Cc2ccc(-c3ccccc3)cc2)NC1=O [Compound 1479] ({CH2CO}-FYDWL[Bip]V[NMeA][dA][Dab]LVSCG-NH2; thioether N-14) |
| 0.03 |  | CC(C)C[C@@H]1NC(=O)[C@H](CCN)NC(=O)[C@@H](CC(C)C)NC(=O)[C@@H]2CCCCN2C(=O)[C@H](C(C)C)NC(=O)[C@H](Cc2ccc(-c3ccccc3)cc2)NC(=O)[C@H](C(C)C)NC(=O)[C@H](Cc2c[nH]c3ccccc23)NC(=O)[C@H](CC(=O)O)NC(=O)[C@H](Cc2ccc(O)cc2)NC(=O)[C@H](CC(N)=O)NC(=O)CSC[C@@H](C(=O)N[C@@H](C)C(N)=O)NC(=O)[C@H]([C@@H](C)O)NC(=O)[C@H](C(C)C)NC1=O [Compound 1298] ({CH2CO}-NYDWV[Bip]V[Pip][dL][Dab]LVTCA-NH2; thioether N-14) |
| 0.01 |  | CC(C)C[C@@H]1NC(=O)[C@H](Cc2c[nH]c3ccccc23)NC(=O)[C@H](CC(=O)O)NC(=O)[C@H](Cc2cccc(C#N)c2)NC(=O)[C@H](Cc2ccccc2)NC(=O)CSC[C@@H](C(=O)N[C@@H](C)C(N)=O)NC(=O)[C@H](CO)NC(=O)[C@H](C(C)C)NC(=O)[C@H](CC(C)C)NC(=O)[C@H](CC(N)=O)NC(=O)[C@@H](C)NC(=O)[C@H](C)N(C)C(=O)[C@H](C(C)C)NC(=O)[C@H](Cc2ccc(-c3ccccc3)cc2)NC1=O [Compound 1723] ({CH2CO}-F[Phe(3-CN)]DWL[Bip]V[NMeA][dA]NLVSCA-NH2; thioether N-14) |
| 0.01 |  | Cc1cccc(C[C@@H]2NC(=O)[C@H](CC(=O)O)NC(=O)[C@H](Cc3ccncc3)NC(=O)[C@H](Cc3ccc(OCC(=O)O)cc3)NC(=O)CSC[C@@H](C(=O)N[C@@H](CCC(=O)O)C(N)=O)NC(=O)[C@H](CO)NC(=O)[C@H](C(C)C)NC(=O)[C@H](CC(C)C)NC(=O)[C@H](CC(N)=O)NC(=O)[C@@H](CC(C)C)NC(=O)[C@H](C)N(C)C(=O)[C@H](C(C)C)NC(=O)[C@H](Cc3ccc(-c4ccccc4)cc3)NC(=O)[C@H](CC(C)C)NC2=O)c1 [Compound 1603] ({CH2CO}-Y(Carboxymethyl)[4Pal]D[Phe(3-Me)]L[Bip]V[NMeA][dL]NLVSCE-NH2; thioether N-14) |
| 0.01 |  | CCC(C)[C@@H]1NC(=O)[C@H](Cc2ccc(-c3ccccc3)cc2)NC(=O)[C@H](C(C)C)NC(=O)[C@H](Cc2cccc(C)c2)NC(=O)[C@H](CC(=O)O)NC(=O)[C@H](Cc2ccc(OCC(=O)O)cc2)NC(=O)[C@H](C(C)O)NC(=O)CSC[C@@H](C(=O)N[C@@H](CCCN)C(N)=O)NC(=O)[C@H](C(C)O)NC(=O)[C@H](C(C)(C)O)NC(=O)[C@H](CC2CCCCC2)NC(=O)[C@H](CCN)NC(=O)[C@@H](CC(C)C)NC(=O)[C@H](C)N(C)C1=O (stereo partly drawn) [Compound 2147] ({CH2CO}-[Thr(3ξ)]Y(Carboxymethyl)D[Phe(3-Me)]V[Bip][Ile(3ξ)][NMeA][dL][Dab][Cha][Val(3-OH)][Thr(3ξ)]C[Orn]-NH2; thioether N-14) |
